This is an account of results in patent publication US12704459B2, “Methods, compositions, and kits for assay signal amplification” (MESO SCALE TECHNOLOGIES, LLC., priority 2021, dated 2026).

For series [1], the system named is anti-SULFO-TAG antibody clones. In words: Competition assay: ligands SM, Bpy or A against TAG compound binding. The following applies: 2 μM of ligand. The arrangement: species or system mouse. As for the experimental part: FIGS. 20A-20I show the results of exemplary competitive binding assays between the TAG compounds shown in FIG. 18A and the SM, Bpy, or A ligands shown in FIG. 18A, with the anti-SULFO-TAG antibody clones described in Example 4. The graphs show the remaining ECL signal after anti-SULFO-TAG antibodies were exposed to 2 μM of each ligand, then varying concentrations of each of the TAG compounds. Lower ECL signal is indicative of stronger binding affinity to a particular ligand. The three panels in the right-most column show ECL signals from exposing the anti-SULFO-TAG antibody clones to 10 nM of the TAG compounds alone (without ligands).
To further verify the role of ligands in antibody recognition, the antibodies were coated on MSD® 96-well Small Spot Streptavidin plates and first exposed to 2 μM of ligands SM, Bpy, or A, then exposed to different concentrations of the TAG compounds as a competition assay.

Series [2] can be described thus: ECL generation of free TAG compounds spiked into ECL read buffer. Type of series: physicochemical. Conditions: free TAG compound in ECL read buffer, 96-well bare carbon plates. As to the method:
An epitope recognition study was performed on the eleven anti-SULFO-TAG antibody clones described in Example 4. To study the epitope recognition of these antibody clones, four organometallic Ru^2+ compounds (“TAG compounds”) with varying numbers of sulfomethyl-bipyridine (“SM”) or bipyridine (“Bpy”) ligands as shown in FIG. 18A were prepared. The SULFO-TAG is denoted as Ru^+2(SM)2A1, which includes an acid ligand (“A”) in one of the Bpy groups and is more similar in structure with Bpy than SM. ECL generation from each TAG compound was verified by spiking the TAG compounds into ECL read buffer, and the ECL signal from each free TAG compound was measured on 96-well bare carbon plates. […] The Ru(Bpy)3 ECL signal, when normalized for concentration, would be 248,576 ECL units, similar to the other TAG compounds.

In the case of `c1ccc(-c2ccccn2)nc1` [Bpy, bipyridine], the “ligand binding / competition with antibody binding to Ru^+2(SM)3 and SULFO-TAG” value in series [1] is “unable to significantly outcompete antibody binding”.

sulfomethyl-bipyridine [SM]: the “ligand binding / competition with antibody binding to Ru^+2(SM)3 and SULFO-TAG” value in series [1] is given as “strongest binding”.

With `[Ru+2].c1ccc(-c2ccccn2)nc1.c1ccc(-c2ccccn2)nc1.c1ccc(-c2ccccn2)nc1` [Ru(Bpy)3], in series [2], the “ECL signal, normalized for concentration” value is reported as 248,576 ECL units.
